Values after ≈ are worked out from the molar mass of the structure shown.
Assays:
[1] = system: methicillin-sensitive S. aureus (ATCC 25923); assay: Microtiter broth dilution MIC, MSSA; type: cell-based, Staphylococcus aureus; conditions: for MIC, MSSA: microtiter broth dilution (CLSI), TSB, 0.5 McFarland, 24 h 37°C, INT 3 h, absorbance 620 nm, MIC = about 90% killing of inoculum, triplicate, repeated three times; for Sensitivity of MSSA (ATCC 25923) to the peptide: microtiter screening, up to 500 μg/ml
Procedure: (§1) The antibacterial activity of the putative antimicrobial peptides was carried out on Staphylococcus aureus spp., a Gram-positive bacterium obtained from the American Type Culture Collection (ATCC), with the S. aureus spp. comprising of the methicillin-sensitive S. aureus (ATCC 25923) and the methicillin-resistant S. aureus (ATCC 33591) strains. The other bacterial strains tested were K. pneumoniae (ATCC 700603) and P. aeruginosa (ATCC 22108) which are Gram-negative bacteria.
(§2) A stock solution of AMPs was prepared by dissolving an amount of AMPs in sterile distilled water (dH2O), and the various AMP working concentrations used in the microtiter broth dilution assay were prepared in two-fold serial dilutions starting at a concentration of 500 μg/ml to 1.5625 μg/ml. Ampicillin was utilized as the positive control in this assay and a working stock solution of 100 μg/ml was prepared in distilled water.
(§3) The microtiter broth dilution method was employed to measure the antibacterial activity of the AMP's. The assay was performed according to the standards and guidelines as stipulated in the Clinical and Laboratory Standards Institute (CLSI). In brief, the test microorganisms (MRSA (ATCC 33591), MSSA (ATCC 25923), K. pneumoniae (ATCC 700603), and P. aeruginosa (ATCC 22108)) were grown to the midlogarithmic phase in Tryptic Soy Broth (TSB) on a shaker set at 37°C and shaking at 150 rpm. The turbidity was adjusted to a 0.5 McFarland standard with a final volume of 10 ml. From the stock of prepared AMP solutions, various working peptide concentrations (500 μg/ml to 1.5625 μg/ml) were prepared, and a mixture of the bacteria with the peptides was incubated in a 96 well flat bottom plate for 24 h at 37°C. Following 24 h incubation, 40 μl of 2-(4-iodophenyl)-3-(4-nitrophenyl)-5-phenyl-2H-tetrazolium (INT) was added to each well and incubated again for 3 h. Absorbance readings were taken at 620 nm on a microtiter plate reader (Omega®POLARstar BMG Labtech, USA).
(§4) All the antibacterial assays of the AMPs were prepared in triplicate, and the experiments were repeated three times to ensure the reproducibility of the testing. Absorbance results were exported into an Excel file, where they were transformed into a percentage, in a Normalizing process. The MIC of each peptide was defined as the concentration resulting in about 90% killing of the initial inoculums.

[2] = system: P. aeruginosa (ATCC 22108); assay: Microtiter broth dilution MIC, P. aeruginosa; type: cell-based, Pseudomonas aeruginosa; conditions: for MIC, P. aeruginosa: microtiter broth dilution (CLSI), TSB, 0.5 McFarland, 24 h 37°C, INT 3 h, absorbance 620 nm, MIC = about 90% killing of inoculum, triplicate, repeated three times
Procedure: as §1, §2, §3, §4

[3] = system: P. aeruginosa (ATCC 22108); assay: Growth inhibitory assay (time curve, OD620), P. aeruginosa; type: cell-based, Pseudomonas aeruginosa; conditions: for Growth inhibition of P. aeruginosa over time: OD620 measured 3 to 8 h after treatment, 96-well plates, different peptide concentrations (25 μg/ml and lower)
Procedure: (§5) The growth curves for K. pneumoniae (ATCC 700603) and P. aeruginosa (ATCC 22108) treated with Molecule 3 and Molecule 7 over time were determined based on measurements taken at 620 nm at each collection time. Different concentrations of the peptide were added to the tested strains (K. pneumonia and P. aeruginosa), which were cultured in 96 well plates using the same method as used for the determination of the antimicrobial activity of the AMPs and the MIC.
(§6) In addition to the determined MICs, we investigated the rate at which the peptides influence the bacterial growth over time (Figures 1 and 2). The OD620 was measured from 3 to 8 h after treatment with a microplate reader, with Ampicillin as a positive control.

[4] = system: K. pneumoniae (ATCC 700603); assay: Microtiter broth dilution MIC, K. pneumoniae; type: cell-based, Klebsiella pneumoniae; conditions: for MIC, K. pneumoniae: microtiter broth dilution (CLSI), TSB, 0.5 McFarland, 24 h 37°C, INT 3 h, absorbance 620 nm, MIC = about 90% killing of inoculum, triplicate, repeated three times
Procedure: as §1, §2, §3, §4

[5] = system: K. pneumoniae (ATCC 700603); assay: Growth inhibitory assay (time curve, OD620), K. pneumoniae; type: cell-based, Klebsiella pneumoniae; conditions: for Growth inhibition of K. pneumoniae over time: OD620 measured 3 to 8 h after treatment, 96-well plates, different peptide concentrations (25 μg/ml and lower)
Procedure: as §5, §6

[6] = system: methicillin-resistant S. aureus (ATCC 33591); assay: Microtiter broth dilution MIC, MRSA; type: cell-based, Staphylococcus aureus; conditions: for MIC, MRSA: microtiter broth dilution (CLSI), TSB, 0.5 McFarland, 24 h 37°C, INT 3 h, absorbance 620 nm, MIC = about 90% killing of inoculum, triplicate, repeated three times; for Sensitivity of MRSA (ATCC 33591) to the peptide: microtiter screening, up to 500 μg/ml
Procedure: as §1, §2, §3, §4

HepG2 cell line = assay: MTT cytotoxicity assay, HepG2; type: cell-based, human; conditions: 48 h treatment; for cell lines inhibition, HepG2: 25 μg/ml peptide; for Cell viability, HepG2: 100 μg/ml peptide, one value given for both peptides, repeated three times
Procedure: (§7) The cytotoxicity activity of the AMPs was measured by using the 3-(4,5-dimethylthiazol-2-yl)-2,5- diphenyltetrazolium bromide (MTT) assay as described by Freimoser. In brief, after the trypsinisation of HEK293T and HepG2 cells, 1 × 10^4 cells/well were seeded in a 96-well sterile plate and grown to confluence in Dulbecco's modified Eagle's medium containing 10% fetal calf serum. Molecule 3 and Molecule 7 were each added to the wells at different concentrations (10 μg/ml, 25 μg/ml, 50 μg/ml, and 100 μg/ml). Cells treated with 6% DMSO served as positive control. After 48 h after treatment with the peptides, 20 μl of MTT solution was added to each well, and the plates were incubated in a humidified incubator for 3 h in 5% CO2 at 37°C. After incubation, the media was removed and dimethyl sulfoxide (DMSO) (100 μl per well) was added into each well and the plate was again incubated in a shaker at 37°C, 5% CO2 incubator for 10 min. The plates were gently swirled for 10 min at room temperature to dissolve the precipitate. The absorbance was determined using a multiplate reader (Omega®POLARstar BMG Labtech, USA) at a wavelength of 570 nm, 600 nm, and 630 nm.
(§8) The assay was repeated three times to confirm the reproducibility of the experiment. The final absorbance of the treated cells was obtained by subtracting the background absorbance of the multi-well plate at 630 nm and from the 570 nm measurements. The percentage cell viability was calculated using the following formulae:(1) Cell viability %=OD570−OD630Treated sample/OD570−OD630Untreated control×100.
(§9) Absorbance results were exported into an Excel file, where they were transformed into a percentage, in a process called normalizing.

HEK293T cell line = assay: MTT cytotoxicity assay, HEK293T; type: cell-based, human; conditions: 48 h treatment; for cell lines inhibition, HEK293T: 25 μg/ml peptide; for Cell viability, HEK 293T: 100 μg/ml peptide, one value given for both peptides, repeated three times
Procedure: as §7, §8, §9

[7] = 100 μg/ml, OD620 time curve 3 to 8 h

Compound | MIC ([1]; Staphylococcus aureus, read-out: MIC, MSSA) [µg/mL] | MIC ([2]; Pseudomonas aeruginosa, ATCC22108, read-out: MIC, P. aeruginosa) [µg/mL] | Growth inhibition of P. aeruginosa, positive control [3, 7] | MIC ([4]; Klebsiella pneumoniae, ATCC700603, read-out: MIC, K. pneumoniae) [µg/mL] | Growth inhibition of K. pneumoniae, positive control [5, 7] | MIC ([6]; Staphylococcus aureus, read-out: MIC, MRSA) [µg/mL] | MIC, MSSA [1] [µg/mL] | MIC, P. aeruginosa [2] [µg/mL] | MIC, K. pneumoniae [4] [µg/mL] | MIC, MRSA [6] [µg/mL] | Sensitivity of MSSA (ATCC 25923) to the peptide [1] | cell lines inhibition, HepG2 (HepG2 cell line) | Cell viability, HepG2 (HepG2 cell line) [%] | Growth inhibition of P. aeruginosa over time [3] | Growth inhibition of K. pneumoniae over time [5] | cell lines inhibition, HEK293T (HEK293T cell line) | Cell viability, HEK 293T (HEK293T cell line) [%] | Sensitivity of MRSA (ATCC 33591) to the peptide [6] | Period of growth suppression of K. pneumoniae ([5]; peptide concentration 6.25 μg/ml, OD620 time curve) [h]
CC1(C)S[C@@H]2[C@H](NC(=O)[C@H](N)c3ccccc3)C(=O)N2[C@H]1C(=O)O [Ampicillin, reference compound] | > 100 | 100 (≈ 286 µM) | could inhibit the growth | > 100 | failed to inhibit the growth | > 100 | – | – | – | – | – | – | – | – | – | – | – | – | –
CLKSGAICHPVFCPRRYKQIGTCGLPGTKCCKKP [Molecule 8, putative anti-HIV antimicrobial peptide, chemically synthesized by solid-phase method] | – | – | – | – | – | – | >500 | >500 | >500 | >500 | – | – | – | – | – | – | – | – | –
CLRYKKPECQSDWQCPGKKRCCPDTCGIKCLDPVDTPNPTRRKPGKCPVTYGQCLMLNPPNFCEMDGQCKRDLKCCMGM [Molecule 1, putative anti-HIV antimicrobial peptide, chemically synthesized by solid-phase method] | – | – | – | – | – | – | >500 | >500 | 500 | >500 | – | – | – | – | – | – | – | – | –
RWKIFKKIEKMGRNIRDGIVKAGPAIEVLGSAKAIGK [Molecule 7, putative anti-HIV antimicrobial peptide, chemically synthesized by solid-phase method] | – | – | – | – | – | – | >500 | 6.25 | 12.5 | >500 | insensitive | more than 90% | 79.5 | could not inhibit P. aeruginosa growth at concentrations lower than the MIC | could not suppress the growth of K. pneumoniae (ATCC 700603) at concentrations lower than the respective MIC values | more than 90% | 59.29 | insensitive | –
RWKLFKKIEKVGRNVRDGLIKAGPAIAVIGQAKSLGK [Molecule 3, putative anti-HIV antimicrobial peptide, chemically synthesized by solid-phase method] | – | – | – | – | – | – | >500 | 6.25 | 12.5 | >500 | insensitive | more than 90% | 79.5 | able to inhibit P. aeruginosa at all the concentrations and for the duration of the experiment | able to suppress the growth of K. pneumoniae (ATCC 700603) at concentrations equal to the MIC (12.5 μg/ml) and 2x MIC | more than 90% | 59.29 | insensitive | 4
WNPFKELEKAGQRVRDAIISAKPAVDVVGQATAIIK [Molecule 10, putative anti-HIV antimicrobial peptide, chemically synthesized by solid-phase method] | – | – | – | – | – | – | >500 | >500 | 500 | >500 | – | – | – | – | – | – | – | – | –

Source: publication PMC7168710, “Antibacterial Activity of Rationally Designed Antimicrobial Peptides” (International Journal of Microbiology, 2020)
